The conditions of data set [1]: cited from earlier work.
Data set [2] is described as follows: Intrinsic dissolution rate, spinning-disc method. It counts as physicochemical. The following applies: for IDR (mean of 2 determinations (mg/cm2/min)): 50 mM Tris at pH 6.8, 37° C./200 RPM, as free base. Here is the method:
The intrinsic dissolution rate (IDR) is expressed as mg vortioxetine dissolved per cm^2 surface per min. The intrinsic dissolution rate is measured using the “spinning-disc method” (μDISS Profiler Instrument from Pion Instruments).
In order to define the surface from which the test compound dissolves, miniaturized disks of compacted pure test compound are made (10 mg). The disk holding the test compound is inserted into a Teflon cup containing an imbedded magnet. The cup is inserted into a vial containing 20 ml dissolution medium (37° C./200 RPM). The dissolved test compound is measured by a fibre optic detection system (200-400 nm). The concentration is determined by comparison with a standard solution and the calculated amount of test compound released (as free base) per surface area is plotted versus time. The slope gives the intrinsic dissolution rate. The measurements are performed in duplicate. The dissolution medium was 50 mM Tris at pH 6.8. Vortioxetine HBr β-form is defined in WO 2007/144005 (see e.g. example 4c and 4d).

A short description of data set [3]: Dynamic Vapour Sorption (hygroscopicity). It counts as physicochemical. The following applies: for Water absorbed (DVS, change in mass): humidity up to / at 95% relative humidity, 25° C. Here is the method:
Dynamic Vapour Sorption spectra were obtained on equipment from SMS Systems (DVS Advantage). The change in mass (relative to the dry state) of a sample (10-20 mg) was determined as a function of the relative humidity (P/P0) at 25° C.

Data set [4] is described as follows: Gelling experiments (vortioxetine pyroglutamate, a salt and water in a vial, left upside down). It counts as physicochemical. The text has this: In one embodiment, the invention relates to a gel comprising vortioxetine pyroglutamate, a salt and water. […] A gel of the present invention is particularly useful for oral administration because it is easily swallowed compared to other oral administration forms, in particular tablets and capsules. A gel of the present invention may comprise other ingredients known in pharmaceutical science, in particular taste modifiers, as discussed above. In the present context and in line with the USP definition of a gel, a gel is intended to indicate a semisolid system consisting of either small […] or large organic molecules interpenetrated by a liquid. A gel thus presents as a coherent, viscous, plastic or non-disintegrating phase. […] In one embodiment, said gel comprises 0.1 M-1 M salt, such as 0.1 M-0.5 M salt, such as 0.1 M-0.3 M salt. […] The amounts of vortioxetine pyroglutamate are indicated as free base. It is the experience of the inventors that the volume of the aqueous phase and the final gel are roughly similar when the gel comprises a therapeutically relevant dose in a therapeutically relevant volume.
The gelling experiments were carried out in a 4 ml cylindrical vial with an inner diameter of approximately 1 cm.

Setting [5] is: known salts, values from the cited reference.
Setting [6] is: Example 1: 5.5 mg, potassium bromide in water 0.17 M, 1.0 mL, 4 mL vial.
The mark [7] stands for this setting: Example 3: 6.2 mg, sodium bromide total 0.26 M, 1.0 mL, 4 mL vial.
[8] abbreviates: Example 4: 10.7 mg, sodium bromide total 0.20 M, 1.0 mL, 4 mL vial.
Setting [9] is: Example 5: 0.80 g, sodium chloride in water 0.20 M, 100 mL, 250 mL round-bottomed flask.
Where [10] appears, read: Example 6: 8.0 mg, sodium chloride total 0.26 M, 1.0 mL, 4 mL vial.
[11] abbreviates: Example 7: 11.2 mg, sodium chloride total […], 1.0 mL, 4 mL vial.
Where [12] appears, read: Example 9: 14 mg, sodium chloride 26 mg and water 2.0 mL, 4 mL vial.
Setting [13] is: Example 2: 10.2 mg, potassium bromide in water 0.23 M, 1.0 mL, 4 mL vial.
Setting [14] is: Example 8: 7.6 mg, sodium bromide in water 0.18 M, 1.0 mL, 4 mL vial.

Read-outs that look alike come from different tables or passages of the source.

In the case of `CC(O)C(=O)O.Cc1ccc(Sc2ccccc2N2CCNCC2)c(C)c1.O` [L-lactate Monohydrate2], the Solubility (usually how much of the substance goes into solution per volume) in data set [1] (setting [5]) was 26000 µg/mL.

For the compound `O=C1CCC(C(=O)O)N1` (racemic) [DL-Pyroglutamate], the “IDR (mean of 2 determinations (mg/cm2/min))” value in data set [2] is recorded as 14.7 mg/cm2/min.

Consider `Cc1ccc(Sc2ccccc2N2CCNCC2)c(C)c1.O.O=C1CCC(C(=O)O)N1` [vortioxetine (DL)-pyroglutamate MH], for which the figures for the “Hygroscopicity (DVS)” value in data set [3] (at 95% relative humidity) and in data set [3] (up to 80% relative humidity at 25° C.) were “hygroscopic” and “not hygroscopic”, respectively. The “Water absorbed (DVS, change in mass)” value in data set [3] is listed as “more than 10%”. Also, the “Standing time until a clear gel was formed” value in data set [4] (setting [6]) is “less than 1 minute”; in data set [4] (setting [7]), “less than 1 minute”; in data set [4] (setting [8]), “less than 1 minute”; in data set [4] (setting [9]), 2 min; in data set [4] (setting [10]), 6 min; in data set [4] (setting [11]), 5 min. In addition, the “Time vial left upside down with gel properties maintained” value (“Time vial left upside down” for short) is given as “more than 1 hour” in data set [4] (setting [6]); “more than 30 minutes” in data set [4] (setting [7]); “more than 1 hour” in data set [4] (setting [8]); “more than 1 hour” in data set [4] (setting [10]); “more than 30 minutes” in data set [4] (setting [11]); “more than 10 minutes” in data set [4] (setting [12]). The “Time flask left upside down with gel properties maintained” value in data set [4] (setting [9]) was “more than 30 minutes”. Further, the “Standing time until gel was formed” value in data set [4] (setting [12]) is recorded as “less than 1 minute”.

For the compound `CC(O)C(=O)O.Cc1ccc(Sc2ccccc2N2CCNCC2)c(C)c1` [DL-lactate β-form], in data set [1] (setting [5]), the “Solubility” value is 8000 µg/mL.

As to `Cc1ccc(Sc2ccccc2N2CCNCC2)c(C)c1.O=C1CCC(C(=O)O)N1` [vortioxetine pyroglutamate], in data set [2] (Example 18), the “Dissolution rate compared to the HBr salt” value is “markedly higher dissolution rate”.

On to `Br.Cc1ccc(Sc2ccccc2N2CCNCC2)c(C)c1` [HBr β-form, reference compound], for which, in data set [1] (setting [5]), the “Solubility” value was 1200 µg/mL. Moreover, the “IDR (mean of 2 determinations (mg/cm2/min))” value in data set [2] is 0.10 mg/cm2/min.

In the case of `Cc1ccc(Sc2ccccc2N2CCNCC2)c(C)c1.O=C1CCC(C(=O)O)N1` [vortioxetine (DL)-pyroglutamate α-form], the “Hygroscopicity (DVS)” value in data set [3] (DVS spectrum up to 95% relative humidity) was “not hygroscopic”. The “Water absorbed (DVS, change in mass)” value in data set [3] (listed as vortioxetine (DL)pyroglutamate α-form) was “Less than 0.3%”. For the same compound, in data set [4] (setting [13]), the “Standing time until a clear gel was formed” value is on record as “less than 1 minute” and the “Time vial left upside down” value was “more than 1 hour”.

On to Maleate, for which, in data set [1] (setting [5]), the “Solubility” value was 1000 µg/mL.

Regarding `Cc1ccc(Sc2ccccc2N2CCNCC2)c(C)c1.Cl` [HCl], the “Solubility” value in data set [1] (setting [5]) is 3000 µg/mL.

Regarding `Br.Cc1ccc(Sc2ccccc2N2CCNCC2)c(C)c1`, the “Solubility” value in data set [1] ((Calculated), WO 2014/044721) is 3000 to 3800 µg/mL.

As to Phosphate, in data set [1] (setting [5]), the “Solubility” value was 1000 µg/mL.

As to `Cc1ccc(Sc2ccccc2N2CCNCC2)c(C)c1.O=C1CCC(C(=O)O)N1` [vortioxetine (L)-pyroglutamate, Vortioxetine (L)-pyroglutamate], the “Water absorbed (DVS, change in mass)” value in data set [3] is recorded as 2.7%. In data set [4] (setting [14]), the “Standing time until a clear gel was formed” value was “less than 1 minute” and the “Time vial left upside down” value was “more than 30 minutes”. Besides, the “IDR (mean of 2 determinations (mg/cm2/min))” value in data set [2] was 14.9 mg/cm2/min.
